Data published in patent publication US9833497B2, “Human originated EGF domain proteins and use of the same” (CHENGDU SOURCEBIO LIMITED-LIABILITY COMPANY, priority 2013, dated 2017).

How the values were obtained:
Assay type in all cases: cell-based
E. coli DH5α = assay: Antibacterial activity: MIC and growth curve against E. coli DH5α in 96-well plate; conditions: minimal inhibitory concentration against E. coli DH5α; 96-well plate, 5×10^5 CFU/mL, 37° C., judged after 8 h
Summary of the method: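 Log-phase DH5α (OD600 about 0.5, 37° C, 185 rpm in LB) was pelleted, resuspended in fresh LB and seeded at 5×10^5 CFU/mL with recombinant protein at 50, 25 and 12.5 μg/mL (two-fold series), in triplicate. Plates were shaken at 175 rpm, 37° C, and OD600 was read every 30 min. MIC was the lowest concentration with no growth.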

E. coli BL21 = assay: MIC against Gram-negative bacteria: E. coli BL21; conditions: E. coli BL21; 10 h cultivation at 37° C.; 5×10^5 CFU/mL
Summary of the method: (§1)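 First, colonies from LB agar were grown in LB at 37° C, 185 rpm, to McFarland turbidity 0.5, then centrifuged and resuspended in fresh LB. Next, wells received 5×10^5 CFU/mL bacteria plus two-fold serially diluted EGF domain protein (triplicate). Finally, plates were shaken at 37° C and the no-growth concentration taken as MIC.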

Pseudomonas aeruginosa = assay: MIC against Gram-negative bacteria: Pseudomonas aeruginosa; conditions: P. aeruginosa; 10 h cultivation at 37° C.; 5×10^5 CFU/mL
Summary of the method: as §1

Klebsiella pneumonia = assay: MIC against Gram-negative bacteria: Klebsiella pneumonia; conditions: K. pneumonia; 10 h cultivation at 37° C.; 5×10^5 CFU/mL
Summary of the method: as §1

Enterobacter cloacae = assay: MIC against Gram-negative bacteria: Enterobacter cloacae; conditions: E. cloacae; 10 h cultivation at 37° C.; 5×10^5 CFU/mL
Summary of the method: as §1

Aeromonas hydrophila = assay: MIC against Gram-negative bacteria: Aeromonas hydrophila; conditions: A. hydrophila; 10 h cultivation at 37° C.; 5×10^5 CFU/mL
Summary of the method: as §1

Citrobacter diversus = assay: MIC against Gram-negative bacteria: Citrobacter diversus; conditions: C. diversus; 10 h cultivation at 37° C.; 5×10^5 CFU/mL
Summary of the method: as §1

Moraxella catarrhalis = assay: MIC against Gram-negative bacteria: Moraxella catarrhalis; conditions: M. catarrhalis; 10 h cultivation at 37° C.; 5×10^5 CFU/mL
Summary of the method: as §1

Proteus mirabilis = assay: MIC against Gram-negative bacteria: Proteus mirabilis; conditions: P. mirabilis; 10 h cultivation at 37° C.; 5×10^5 CFU/mL
Summary of the method: as §1

Proteus vulgaris = assay: MIC against Gram-negative bacteria: Proteus vulgaris; conditions: P. vulgaris; 10 h cultivation at 37° C.; 5×10^5 CFU/mL
Summary of the method: as §1

Serratia marcescens = assay: MIC against Gram-negative bacteria: Serratia marcescens; conditions: S. marcescens; 10 h cultivation at 37° C.; 5×10^5 CFU/mL
Summary of the method: as §1

| Substance | MIC (E. coli DH5α) [µg/mL] | MIC (μg/mL) E. coli BL21 (E. coli BL21) [µg/mL] | MIC (μg/mL) P. aeruginosa (Pseudomonas aeruginosa) [µg/mL] | MIC (μg/mL) K. pneumonia (Klebsiella pneumonia) [µg/mL] | MIC (μg/mL) E. cloacae (Enterobacter cloacae) [µg/mL] | MIC (μg/mL) A. hydrophila (Aeromonas hydrophila) [µg/mL] | MIC (μg/mL) C. diversus (Citrobacter diversus) [µg/mL] | MIC (μg/mL) M. catarrhalis (Moraxella catarrhalis) [µg/mL] | MIC (μg/mL) P. mirabilis (Proteus mirabilis) [µg/mL] | MIC (μg/mL) P. vulgaris (Proteus vulgaris) [µg/mL] | MIC (μg/mL) S. marcescens (Serratia marcescens) [µg/mL] |
| --- | --- | --- | --- | --- | --- | --- | --- | --- | --- | --- | --- |
| PRT159 (EYDACQRKPCQNNASCIDANEKQDGSNFTCVCLPGYTGELCQ; listed as Homo sapiens) | 25 | 50 | 25 | 12.5 | 12.5 | 12.5 | 12.5 | 12.5 | 25 | 12.5 | 25 |
| PRT160 (KIDYCILDPCRNGATCISSLSGFTCQCPEGYFGSACE; listed as Homo sapiens) | 12.5 | 25 | 12.5 | 25 | 25 | 25 | 12.5 | 25 | 12.5 | 25 | 12.5 |
| PRT161 (KVDPCASSPCQNNGTCYVDGVHFTCNCSPGFTGPTCA; listed as Homo sapiens) | 12.5 | 12.5 | 25 | 12.5 | 25 | 50 | 25 | 12.5 | 25 | 50 | 25 |
| PRT162 (LIDFCALSPCAHGTCRSVGTSYKCLCDPGYHGLYCE; listed as Homo sapiens) | 12.5 | 25 | 12.5 | 25 | 12.5 | 25 | 12.5 | 12.5 | 100 | 12.5 | 25 |
| PRT163 (EYNECLSAPCLNAATCRDLVNGYECVCLAEYKGTHCE; listed as Homo sapiens) | 12.5 | 25 | 12.5 | 25 | 12.5 | 25 | 12.5 | 25 | 50 | 25 | 12.5 |
| PRT164 (YKDPCANVSCLNGATCDSDGLNGTCICAPGFTGEECD; listed as Homo sapiens) | 25 | 50 | 25 | 12.5 | 25 | 50 | 12.5 | 50 | 12.5 | 50 | 12.5 |
| PRT165 (DVRACSSAPCANNGTCVSLDDGLYECSCAPGYSGKDCQ; listed as Homo sapiens) | 12.5 | 12.5 | 25 | 12.5 | 25 | 25 | 25 | 25 | 12.5 | 25 | 12.5 |
| PRT166 (NGSPCQHGGTCVDDEGRASHASCLCPPGFSGNFCE; listed as Homo sapiens) | 12.5 | 25 | 12.5 | 25 | 12.5 | 12.5 | 12.5 | 12.5 | 12.5 | 12.5 | 50 |
